# From ChEMBL document CHEMBL5442379, “ASAP - SARS-CoV-2 nsp3 macrodomain single point” (2024)
# Target: Replicase polyprotein 1ab (Severe acute respiratory syndrome coronavirus 2) (UniProt P0DTD1)
# Description: Functional biochemical assay to identify treatments for viral infectious disease that targets SARS-COV-2 nsp3 macrodomain, whereby the mechanism of action displaces an ADP-Ribose modified peptide from the binding site. Utilizing a time-resolved fluorescence method to measure binding by reading the emitted fluorescence intensity in two wavelengths.
compound,measurement,setting,value
O=C1CC[C@H](COC(=O)c2ncnc3[nH]ccc23)CCN1,inhibition,"Concentration 50.0 uM, Number of replicates 2.0, Standard deviation 3.465 %",-7.87%
Cc1cc(C(=O)Nc2[nH]nc3nc(O)ccc23)c2c(C)nn(C)c2n1,inhibition,"Concentration 50.0 uM, Number of replicates 2.0, Standard deviation 0.36 %",-6.17%
same,inhibition,"Concentration 100.0 uM, Number of replicates 2.0, Standard deviation 2.675 %",-3.32%
CC(C)NC(=O)[C@@H]1CCCN(c2ncnc3[nH]ccc23)C1,inhibition,"Concentration 50.0 uM, Number of replicates 2.0, Standard deviation 0.005 %",1.78%
Cc1nc(Nc2cnn(CCO)c2)c2cc[nH]c2n1,inhibition,"Concentration 50.0 uM, Number of replicates 2.0, Standard deviation 4.582 %",-6.15%
c1ccc2c(-c3c[nH]c4ncccc34)n[nH]c2c1,inhibition,"Concentration 50.0 uM, Number of replicates 2.0, Standard deviation 4.4 %",-7.25%
COc1ccc(Nc2ncnc3[nH]ncc23)c(OC)c1,inhibition,"Concentration 50.0 uM, Number of replicates 2.0, Standard deviation 7.795 %",2.6%
O=S(=O)(Nc1cnc2[nH]ncc2c1)c1cnn(C2CCCC2)c1,inhibition,"Concentration 50.0 uM, Number of replicates 2.0, Standard deviation 0.633 %",0.415%
CC(C)[C@@H](Nc1ncnc2[nH]ccc12)c1nc2ccccc2[nH]1,inhibition,"Concentration 49.75 uM, Number of replicates 2.0, Standard deviation 3.253 %",37.3%
same,inhibition,"Concentration 99.5 uM, Number of replicates 2.0, Standard deviation 1.702 %",52.5%
O=C(Nc1cnc2[nH]ncc2c1)c1ccc(Oc2cccc(Br)c2)nc1,inhibition,"Concentration 50.0 uM, Number of replicates 2.0, Standard deviation 1.64 %",-0.183%
CCO[C@@H]1C[C@@H](Nc2ncnc3[nH]ccc23)C12CCOCC2,inhibition,"Concentration 50.0 uM, Number of replicates 2.0, Standard deviation 3.029 %",2.32%
C[C@H](NC(=O)c1cnn2ccc(C3CCN(C(=O)c4ccccc4)CC3)cc12)c1cccnc1,inhibition,"Concentration 49.75 uM, Number of replicates 2.0, Standard deviation 2.207 %",-1.84%
same,inhibition,"Concentration 99.5 uM, Number of replicates 2.0, Standard deviation 1.542 %",-6.21%
CN1CCO[C@H](CNC(=O)c2ccc(NC(=O)Nc3ccccc3)cc2)C1,inhibition,"Concentration 49.75 uM, Number of replicates 2.0, Standard deviation 5.309 %",-0.616%
same,inhibition,"Concentration 99.5 uM, Number of replicates 2.0, Standard deviation 6.496 %",3.27%
O=C(c1nc(=O)[nH][nH]1)N1CCC(c2ccn3ncc(C(=O)N4CCCCC4)c3c2)CC1,inhibition,"Concentration 49.75 uM, Number of replicates 2.0, Standard deviation 0.837 %",23.4%
same,inhibition,"Concentration 99.5 uM, Number of replicates 2.0, Standard deviation 3.14 %",34.6%
O=C(CCCc1cccnc1)Nc1cnc2[nH]ncc2c1,inhibition,"Concentration 50.0 uM, Number of replicates 2.0, Standard deviation 5.838 %",-3.65%
COC(=O)c1cc2c(Oc3ccccc3C#N)ncnc2[nH]1,inhibition,"Concentration 50.0 uM, Number of replicates 2.0, Standard deviation 0.741 %",2.92%
Cc1[nH]c2ncnc(NCc3ccco3)c2c1C,inhibition,"Concentration 50.0 uM, Number of replicates 2.0, Standard deviation 0.505 %",17%
same,inhibition,"Concentration 100.0 uM, Number of replicates 2.0, Standard deviation 0.323 %",37.5%
O=C(c1ccccc1)N1CCC(c2ccn3ncc(C(=O)N4CCn5ncnc5C4)c3c2)CC1,inhibition,"Concentration 49.75 uM, Number of replicates 2.0, Standard deviation 0.529 %",-3.77%
same,inhibition,"Concentration 99.5 uM, Number of replicates 2.0, Standard deviation 3.194 %",-3.52%
O=C(OCc1cccc(Cl)n1)c1ncnc2[nH]ccc12,inhibition,"Concentration 50.0 uM, Number of replicates 2.0, Standard deviation 4.164 %",11.4%
Nc1ncnc2c1ncn2Cc1cccc2ncnn12,inhibition,"Concentration 49.75 uM, Number of replicates 2.0, Standard deviation 0.496 %",-0.553%
same,inhibition,"Concentration 99.5 uM, Number of replicates 2.0, Standard deviation 1.809 %",-3.16%
O=S1(=O)CCC[C@@H](CNc2ncnc3n[nH]cc23)C1,inhibition,"Concentration 50.0 uM, Number of replicates 2.0, Standard deviation 5.989 %",4.59%
OC[C@@H]1CN(c2ncnc3nc[nH]c23)CCC1(F)F,inhibition,"Concentration 50.0 uM, Number of replicates 2.0, Standard deviation 0.855 %",1.75%
CO[C@@H](CNc1ncnc2[nH]ccc12)c1cccc(Cl)c1,inhibition,"Concentration 50.0 uM, Number of replicates 2.0, Standard deviation 2.381 %",4.1%
same,inhibition,"Concentration 100.0 uM, Number of replicates 2.0, Standard deviation 2.011 %",14.2%
CN(C(=O)c1cnn2ccc(C3CCN(C(=O)c4ccccc4)CC3)cc12)c1ccccc1O,inhibition,"Concentration 49.75 uM, Number of replicates 2.0, Standard deviation 2.649 %",10%
same,inhibition,"Concentration 99.5 uM, Number of replicates 2.0, Standard deviation 4.361 %",15.9%
Cc1cc(C(F)(F)F)nn1CCNc1ncnc2[nH]ccc12,inhibition,"Concentration 50.0 uM, Number of replicates 2.0, Standard deviation 3.563 %",-3.04%
same,inhibition,"Concentration 50.0 uM, Number of replicates 2.0, Standard deviation 6.31 %",4.6%
same,inhibition,"Concentration 100.0 uM, Number of replicates 2.0, Standard deviation 1.334 %",-2.21%
CC(C)[C@@H]1C(=O)NCCN1c1ncnc2[nH]ccc12,inhibition,"Concentration 49.75 uM, Number of replicates 2.0, Standard deviation 1.976 %",61.4%
same,inhibition,"Concentration 99.5 uM, Number of replicates 2.0, Standard deviation 0.754 %",80.7%
Cc1cc(NCc2csc(C)n2)ncn1,inhibition,"Concentration 50.0 uM, Number of replicates 2.0, Standard deviation 0.576 %",-4.64%
Cc1[nH]c2ncnc(NC(=O)c3ccncc3Cl)c2c1C,inhibition,"Concentration 50.0 uM, Number of replicates 2.0, Standard deviation 1.372 %",69.6%
same,inhibition,"Concentration 100.0 uM, Number of replicates 2.0, Standard deviation 0.621 %",85.6%
O=S(=O)(Nc1ncccn1)c1ccc2oc3ccccc3c2c1,inhibition,"Concentration 50.0 uM, Number of replicates 2.0, Standard deviation 5.51 %",-3%
O=C(CCN(Cc1cccc(Cl)c1)C(=O)c1c[nH]c(=O)cn1)N1CCNCC1,inhibition,"Concentration 49.75 uM, Number of replicates 2.0, Standard deviation 1.237 %",-2.71%
same,inhibition,"Concentration 99.5 uM, Number of replicates 2.0, Standard deviation 0.012 %",0.98%
O=C(CCN(Cc1cccc(Cl)c1)C(=O)[C@H]1CCOC1)N1CCNCC1,inhibition,"Concentration 49.75 uM, Number of replicates 2.0, Standard deviation 12.724 %",4.08%
same,inhibition,"Concentration 99.5 uM, Number of replicates 2.0, Standard deviation 2.436 %",-3.96%
Cn1nncc1C(=O)N(CCC(=O)N1CCNCC1)Cc1cccc(Cl)c1,inhibition,"Concentration 49.75 uM, Number of replicates 2.0, Standard deviation 1.263 %",0.447%
same,inhibition,"Concentration 99.5 uM, Number of replicates 2.0, Standard deviation 1.735 %",-2.15%
CC(C)[C@@H](Nc1ncnc2[nH]ccc12)C(F)F,inhibition,"Concentration 49.75 uM, Number of replicates 2.0, Standard deviation 1.25 %",81.6%
same,inhibition,"Concentration 99.5 uM, Number of replicates 2.0, Standard deviation 1.983 %",91.7%
CCN(Cc1cccnc1)C(=O)c1ccc(NC(=O)Nc2ccccc2)cc1,inhibition,"Concentration 49.75 uM, Number of replicates 2.0, Standard deviation 4.414 %",3.63%
same,inhibition,"Concentration 99.5 uM, Number of replicates 2.0, Standard deviation 0.745 %",-7.09%
FC(F)(F)c1ccccc1[C@@H]1CN(c2ncnc3[nH]ccc23)CCO1,inhibition,"Concentration 50.0 uM, Number of replicates 2.0, Standard deviation 3.904 %",-5.31%
O=C(Nc1ccc(C(=O)NCc2c(C(=O)O)[nH]c3ccccc23)cc1)NC1CC1,inhibition,"Concentration 50.0 uM, Number of replicates 2.0, Standard deviation 1.193 %",86.2%
O=C(c1cnc[nH]1)N1CCC(c2ccn3ncc(C(=O)N4CCCCC4)c3c2)CC1,inhibition,"Concentration 49.75 uM, Number of replicates 2.0, Standard deviation 1.741 %",20.3%
same,inhibition,"Concentration 99.5 uM, Number of replicates 2.0, Standard deviation 2.598 %",35.3%
O=C(Nc1cnc2[nH]ncc2c1)c1ccncc1Cl,inhibition,"Concentration 50.0 uM, Number of replicates 2.0, Standard deviation 1.31 %",-2.75%
same,inhibition,"Concentration 50.0 uM, Number of replicates 2.0, Standard deviation 1.931 %",-0.272%
same,inhibition,"Concentration 100.0 uM, Number of replicates 2.0, Standard deviation 1.828 %",2.96%
CN(C[C@H]1CCCN1)C(=O)c1cnn2ccc(C3CCN(C(=O)c4ccccc4)CC3)cc12,inhibition,"Concentration 49.75 uM, Number of replicates 2.0, Standard deviation 0.33 %",-7.47%
same,inhibition,"Concentration 99.5 uM, Number of replicates 2.0, Standard deviation 2.559 %",-6.59%
c1ccc2sc(CCNc3ncnc4nc[nH]c34)nc2c1,inhibition,"Concentration 50.0 uM, Number of replicates 2.0, Standard deviation 2.493 %",-4.21%
O=C(c1ccnnc1O)N1CCC(c2ccn3ncc(C(=O)N4CCCCC4)c3c2)CC1,inhibition,"Concentration 49.75 uM, Number of replicates 2.0, Standard deviation 0.647 %",-7.59%
same,inhibition,"Concentration 99.5 uM, Number of replicates 2.0, Standard deviation 0.871 %",10.2%
O=C(CCN(Cc1cccc(Cl)c1)C(=O)C1CCC(O)CC1)N1CCNCC1 (configuration not stated),inhibition,"Concentration 49.75 uM, Number of replicates 2.0, Standard deviation 4.563 %",-4.32%
same,inhibition,"Concentration 99.5 uM, Number of replicates 2.0, Standard deviation 1.877 %",0.465%
c1nc(N[C@@H]2CCCc3c2cnn3C2CCCC2)c2cc[nH]c2n1,inhibition,"Concentration 49.75 uM, Number of replicates 2.0, Standard deviation 0.354 %",0.884%
same,inhibition,"Concentration 99.5 uM, Number of replicates 2.0, Standard deviation 0.15 %",14.3%
CCCNC(=O)[C@H]1CCCN(c2ncnc3[nH]ccc23)C1,inhibition,"Concentration 50.0 uM, Number of replicates 2.0, Standard deviation 0.927 %",-4.36%
COc1ccccc1C[C@@H](Nc1ncnc2[nH]ccc12)C(C)C,inhibition,"Concentration 49.75 uM, Number of replicates 2.0, Standard deviation 1.888 %",31.7%
same,inhibition,"Concentration 99.5 uM, Number of replicates 2.0, Standard deviation 1.108 %",48.5%
Cc1nc(C)c(CC(=O)Nc2cnc3[nH]ncc3c2)c(=O)[nH]1,inhibition,"Concentration 50.0 uM, Number of replicates 2.0, Standard deviation 0.296 %",4.83%
O[C@H]1C[C@](CNc2ncnc3[nH]ccc23)(c2ccccc2)C1,inhibition,"Concentration 50.0 uM, Number of replicates 2.0, Standard deviation 6.633 %",11.4%
CCC[C@@](C)(NC(=O)c1ncnc2[nH]ccc12)C(=O)OC,inhibition,"Concentration 50.0 uM, Number of replicates 2.0, Standard deviation 3.705 %",-6.62%
O=C(Nc1ccccc1)Nc1ccc(C(=O)NCCc2cccnc2)cc1,inhibition,"Concentration 49.75 uM, Number of replicates 2.0, Standard deviation 2.77 %",1.27%
same,inhibition,"Concentration 99.5 uM, Number of replicates 2.0, Standard deviation 0.373 %",10.4%
C=CCn1c(Sc2ncnc3[nH]ccc23)nc2sccc2c1=O,inhibition,"Concentration 50.0 uM, Number of replicates 2.0, Standard deviation 0.219 %",6.3%
Brc1ccc(-n2nnnc2Sc2ncnc3[nH]ccc23)cc1,inhibition,"Concentration 50.0 uM, Number of replicates 2.0, Standard deviation 10.96 %",12.7%
O=C(CCN(Cc1cccc(Cl)c1)C(=O)C1(F)CCCCC1)N1CCNCC1,inhibition,"Concentration 49.75 uM, Number of replicates 2.0, Standard deviation 2.579 %",-3.58%
same,inhibition,"Concentration 99.5 uM, Number of replicates 2.0, Standard deviation 1.426 %",0.185%
O=C(CCN(Cc1cccc(Cl)c1)C(=O)[C@@H]1C[C@@H](O)CN1)N1CCNCC1,inhibition,"Concentration 49.75 uM, Number of replicates 2.0, Standard deviation 1.654 %",-3.54%
same,inhibition,"Concentration 99.5 uM, Number of replicates 2.0, Standard deviation 6.509 %",4.74%
